From US10342806B2, “Hormone treatment for age-related hearing loss-presbycusis” (priority 2014, dated 2019)
Peptide text beside a SMILES is read from it. * marks the point of attachment. Cbz = O=C(OCc1ccccc1)*

Legend:
Assay type in all cases: cell-based, human
LC3-I, -II, and LAMP-2 = experiment: Lysosome pathway markers in HT-29 cells, Western blot; settings: ALD 1 μM, MG-132 20 μM, CQ 50 μM, 9 h
Method: FIG. 23(A) is a blot and showing ubiquitination, but not the lysosome pathway, is involved in the regulation of NKCC1 by ALD. To exclude the possibility that depletion of free ubiquitin by the prolonged MG-132 treatment triggered nonspecific inhibition of lysosome degradation of NKCC1 and investigate whether ALD is involved in a lysosome pathway, a parallel experiment with chloroquine (CQ) was performed. Here, the positive marks (+) indicate application of ALD (1 μM), MG132 (20 μM), CQ (50 μM), ALD+CQ, and MG132+CQ for 9 h. An autophagosome marker, autophagy-related gene 8 named as light chain 3 (LC3), and the lysosome-associated membrane protein 2 (LAMP-2) were used was indicators of lysosome pathway activation (phagocytic activity) under treatment with CQ.
(§1) Western blot. Cell lysates were prepared in RIPA buffer (Pierce 89901; Thermo Scientific, Waltham, Mass.) with protease inhibitor cocktail (78430; Thermo Scientific). Cell samples were homogenized in buffer, followed by centrifugation at 2,000 rpm for 10 min at 4° C. Supernatants were subjected to Western blot analysis by loading 200 μg of protein per lane, after the protein concentrations were determined by Bradford protein assay. Proteins were fractionated by SDS-PAGE gel electrophoresis and transferred to a PVDF blotting membrane (Whatman, Piscataway, N.J.). The blot was incubated with primary antibodies against β-actin and Na—K-2C1 cotransport protein (Cell Signaling, Danvers Mass.); primary antibodies for p-SGK1, SGK1, pNedd4-2, and Nedd4-2 were utilized (concentration 1:1,000). The secondary antibody was horseradish peroxidaseconjugated goat anti-rabbit IgG (1:2,000; Cell Signaling).
Ubiquitination, but not the lysosome pathway, is involved in NKCC1 induction by ALD. A parallel experiment was performed with chloroquine (CQ), a lysosome inhibitor, to exclude the possibility that prolonged MG-132 treatment depleted free ubiquitin by nonspecific inhibition of lysosome degradation of NKCC1 and to confirm whether or not ALD is involved in a lysosome pathway. […]

NKCC1 [1] = experiment: NKCC1 protein expression in HT-29 cells, Western blot
Source text: Cell culture and buffers. […] Arch Oral Biol 52: 411-416, 2007). These include, for example, studies of COMM domain-containing protein 1, which is involved in NKCC1 ubiquitination and transcriptional regulation of epithelial Na^+ channels (ENaC) located in the apical membrane of polarized epithelial cells, in particular, cells in the colon, kidney, and lung, by ALD (Cohen, et al., Induced differentiation in HT29, a human colon adenocarcinoma cell line. J Cell Sci 112: […], 1999, Epple, et al., Early aldosterone effect in distal colon by transcriptional regulation of ENaC subunits. Am J Physiol Gastrointest Liver Physiol 278: G718-G724, 2000, Smith, et al., COMMD1 interacts with the COOH terminus of NKCC1 in Calu-3 airway epithelial cells to modulate NKCC1 ubiquitination. Am J Physiol Cell Physiol 305: C133-C146, 2013). HT-29 cells were grown in DMEM media (Invitrogen, Carlsbad Calif.) with 10% FBS and antibiotics. Cells were grown in a humidified 95%/5% CO2 incubator at 37° C. Experiments were performed at 70-80% confluence.
as §1
Statistical analysis. Images from films were imported into Adobe Photoshop (v 5.0), and further processed using Adobe Photoshop CS and ImageJ (National Institutes of Health) for the densitometry analysis. Data are reported as means±SD. Statistical analyses were performed with PRISM 4.0 (GraphPad Software, San Diego Calif.). Differences were analyzed with a one- or a two-way repeated measures ANOVA as appropriate or a two-way ANOVA followed by Bonferroni post hoc analyses that were corrected for multiple comparisons. Values of P <0.05 were considered significant.

NKCC1 [2] = experiment: Tl-uptake in single HT-29 cells (FluxOR) for NKCC1 activity; settings: 24 single HT-29 cells per condition
Source text: Tl-uptake in single cells for the detection of NKCC1 activity. To measure NKCC1 activity, we used a fluorescence assay to assess cotransporter activity in single isolated HT-29 cells (Delpire & Austin, Kinase regulation of Na^+—K^+-2Cl^− cotransport in primary afferent neurons. J Physiol 588: 3365-3373, 2010, Geng, et al., The Ste20 kinases SPAK and OSR1 regulate NKCC1 function in sensory neurons. J Biol Chem 284: 14020-14028, 2009, Weaver, et al., A thallium-sensitive, fluorescence-based assay for detecting and characterizing potassium channel modulators in mammalian cells. J Biomol Screen 9: 671-677, 2004). HT-29 cells were incubated at 37° C./5% CO2 for 24 h before use. […] For the detection of fluorescence, the preincubation solution was removed, and the cells were treated with a 340.5 mosM hypertonic stimulus solution containing the following (in mM): (2.8 TISO4, 140 NaCl, 2 KCl, 2 CaCl2, 0.8 MgSO4, 5 glucose, 20 HEPES, 27 sucrose, 1 ouabain, and 2.7 probenecid) in the presence or absence of 20 μM bumetanide. […] FluxOR fluorescence (excitation/emission: 488/525 nm) was recorded after 90 s upon addition of 2.8 mM […] to the external medium. […]
Influence of ALD on NKCC1 transporter activity. […] To test this hypothesis, a more efficient and sensitive method, fluorescence Ion flux assays was adopted to measure NKCC1 transporter activity. […]

Na,K-ATPase = Na,K-ATPase mRNA expression in HT-29 cells; settings: 5 mM, 24 hr, HT-29, compared to vehicle treatment; preliminary data
Method: FIG. 37 is a blot showing the up-regulation of Na, K-ATPase with NH4Cl. L is the DNA ladder, C is the control (vehicle treatment), NH4CL is treatment with 5 mM NH4Cl for 24 hours.
Ammonium chloride (NH4Cl) as part of a proposed treatment of presbycusis is based on the fact that NH4Cl has been used with FDA approval as a diuretic; NH4Cl increases NKCC1 protein expression and activity in several studies in other physiological systems (Jayakumar et al. 2008; Ikebe et al. 2001); c) NH4Cl can also increase Na, K-ATPase activity (Masui et al. 2002; Garcon et al. 2007). For large doses, NH4Cl can induce metabolic acidosis, but in lower doses taken orally, there are no significant side effects in the short term.

NKCC1 ubiquitination = experiment: Immunoprecipitation (autoubiquitination assay) of NKCC1 in HT-29 cells; settings: MG132 20 μM 2 h, then ALD 1 μM and/or GSK 650394 50 μM for 24 h
Method: Immunoprecipitation (autoubiquitination assay) and western blot analysis. An autoubiquitination assay was followed (Garg, et al., Effect of the Na—K-2Cl cotransporter NKCC1 on systemic blood pressure and smooth muscle tone. Am J Physiol Heart Circ Physiol 292: H2100-H2105, 2007). Cell extracts were prepared in a modified radioimmunoprecipitation assay 1 (RIPA) buffer, containing the following (in mM): 50 Tris·HCl at pH 7.4, 150 NaCl, 1 EDTA, and 1 dithiothreitol with 1% Nonidet P-40, 0.1% SDS; in a 1:200-diluted protease inhibitor cocktail (Sigma), containing the following (in mM): 1 PMSF, 10 NEM, and 0.1 iodoacetamide Immunoprecipitations were accomplished using a rabbit polyclonal anti-NKCC1 antibody (Cell Signaling). Antibody was bound to lysate with endogenous NKCC1, and then beads were added. Bound proteins were eluted in 1× SDS sample buffer, fractionated on an SDS-polyacrylamide gel, transferred onto a […] membrane (GE Healthcare, Piscataway, N.J.), and immunoblotted with anti-ubiquitin antibody visualized using enhanced chemiluminescence detection reagents (Pears, Shelton Conn.) according to the manufacturer's instructions.
Immunoblotting with anti-ubiquitin antibody was performed as described above.
ALD decreases the endogenous ubiquitination of NKCC1 and inhibition of SGK1 activation blocks this downregulation. […]

SGK1 and Nedd4-2 = SGK1 and Nedd4-2 phosphorylation in HT-29 cells, Western blot; settings: 9 h
Method: FIG. 25 is a blot showing ALD modulation of NKCC1 via the ALD-SGK1-Nedd4-2 pathway. HT-29 cells were treated with ALD (1 μM) or ALD (1 μM)+GSK650394 (50 μM) for 9 h. Cell lysates were analyzed by Western blot as indicated. Blots are representative of 3 independent experiments. Left: controls. Middle: ALD increases the phosphorylations of SGK1 and Nedd4-2, concomitantly there is an increased induction of NKCC1 protein expression (1st row).
as §1

**Q.** Which “lysosome pathway markers LC3II and LAMP-2 expression levels” value (LC3-I, -II, and LAMP-2) does the source give for `CCN(CC)CCCC(C)Nc1ccnc2cc(Cl)ccc12` (centres unmarked) [CQ, chloroquine] here?
**A.** significant upregulation of LC3II and LAMP-2 expression levels

**Q.** `COC(=O)[C@@H]1CC2=CC(=O)CC[C@]2(C)[C@@]23O[C@@H]2C[C@@]2(C)[C@@H](CC[C@@]24CCC(=O)O4)[C@H]13` [eplerenone] was tested. Which “effect on ALD upregulation of NKCC1 protein expression” value (NKCC1 [1]; simultaneous ALD (1 μM) and eplerenone (20 μM)) did it give?
**A.** prevented the ALD upregulation of NKCC1 protein expression

**Q.** For `CC(C)C[C@@H](C=O)NC(=O)[C@H](CC(C)C)NC(=O)[C@H](CC(C)C)NC(=O)OCc1ccccc1` [MG132] (Cbz-Leu-Leu-Leu-aldehyde), which “lysosome pathway markers LC3II and LAMP-2 expression levels” value (LC3-I, -II, and LAMP-2) is on record?
**A.** without increasing lysosome pathway markers

**Q.** What about the “bumetanide-sensitive Tl+ uptake fluorescence” value (NKCC1 [2]) of the same compound?
**A.** identical enhancements similar to the ALD treatment alone

**Q.** What about the “induction of NKCC1 protein expression” value (NKCC1 [1]; ALD 1 μM, MG-132 20 μM, CQ 50 μM, 9 h) of the same compound?
**A.** induce NKCC1 protein expression similarly

**Q.** What about the NKCC1 protein expression (NKCC1 [1]; MG132, ALD 1 μM, 3, 6, or 9 h) of the same compound?
**A.** effect of ALD on NKCC1 expression was mimicked by MG132

**Q.** How did the “mRNA expression of Na,K-ATPase” value (Na,K-ATPase) turn out when `Cl.N` [NH4Cl, Ammonium chloride] was run?
**A.** enhances the mRNA expression of Na,K-ATPase

**Q.** With `O=C(O)c1ccc(-c2c[nH]c3ncc(-c4ccccc4)cc23)cc1C1CCCC1` [GSK 650394] as the compound, how does the “endogenous ubiquitinated NKCC1” value (NKCC1 ubiquitination) read?
**A.** reduces the ability of ALD to suppress NKCC1 ubiquitination

**Q.** What about the “total protein expressions of SGK1 and Nedd4-2” value (SGK1 and Nedd4-2; ALD 1 μM + GSK 650394 50 μM) of the same compound?
**A.** showed no differences

**Q.** What about the “phosphorylation of SGK1 and Nedd4-2” value (SGK1 and Nedd4-2; ALD 1 μM, GSK 650394 50 μM) of the same compound?
**A.** blocked phosphorylation of SGK1 and Nedd4-2

**Q.** What about the “NKCC1 protein expression with ALD in the presence of SGK1 inhibitor” value (NKCC1 [1]; ALD 1 μM + GSK 650394 50 μM, 9 h) of the same compound?
**A.** did not increase protein expression of NKCC1
